Test results published in patent US8093060B2, “Multisite phosphorylated peptide (protein) recognizing compound and detection method, imaging method, alzheimer's disease diagnosing method and reagent kit using the same” (Canon Kabushiki Kaisha, priority 2008, dated 2012).

How the values were obtained:
Type in all cases: binding
[1] = target: T1, phosphorylated tau aggregate (p-Tau) (Homo sapiens, UniProt P10636); experiment: Fluorescence staining of phosphorylated tau aggregate prepared in vitro
T1 construct: made in house; host or cells: Escherichia coli
Method: (§1) Tau proteins (8 μM) expressed by Escherichia coli and heparin (1.6 μM) were incubated at 37° C. for 20 days to prepare a tau aggregate. A phosphorylated tau aggregate was similarly prepared using tau proteins phosphorylated with GSK-3β in vitro. The results of Pro-Q diamond staining after performing SDS-PAGE confirmed that the in-vitro phosphorylation was performed with a phosphorylation degree of 6 mol P/mol Tau.
(§2) 10 μM BODIPY-Zn(Dpa) or 10 μM thioflavine T (may be referred to as ThT) were added to the prepared tau aggregate or phosphorylated tau aggregate. After the addition, the mixture was washed twice with 0.5 mM Zn(NO3)2, and a suspension (0.5 μL) of the stained phosphorylated tau aggregate was air-dried on a cover glass and observed under a confocal laser scanning microscope (OLYMPUS FV-1000, Obj. lens 100×).

[2] = target: T2, nonphosphorylated Tau aggregate (n-Tau) (Homo sapiens, UniProt P10636); experiment: Fluorescence staining of nonphosphorylated tau aggregate prepared in vitro; settings: 10 μM dye
T2 construct: made in house; host or cells: Escherichia coli
Method: as §1, §2

Tau210-2202P [3] = target: T3, Tau210-2202P (Homo sapiens, UniProt P10636); experiment: Fluorescence spectra titration with Tau210-2202P added dropwise; settings: compound 10 μM, pH 7.2, 50 mM HEPES buffer, 25° C.
T3 construct: made in house; host or cells: chemical solid-phase synthesis
Method: (§3) The peptide recognizing abilities of compounds 1 and 2 were evaluated by measuring fluorescence spectra. Measurement was performed under conditions of [compound 1 or 2=10 μM, an optical path length of 1 cm, pH 7.2, 50 mM HEPES buffer and 25° C. The excitation wavelength was λex=323 nm, Ex/Em=15 nm/10 nm, except λex=323 nm, Ex/Em=5 nm/10 nm for only Tau210-2202P, for compound 1, and λex=305 nm, Ex/Em=10 nm/12 nm for compound 2. […] When the peptide was excessively added, this change reached saturation. The association constants calculated from the fluorescence changes were in the order of approx. 10^5 M^−1. […] When the fluorescence spectra of compounds 1 and 2 themselves were compared, compound 2 emitted much weaker fluorescence on the short wavelength side and stronger fluorescence on the long wavelength side than compound 1 (FIG. 8B) ([compound 1 or 2=10 μM, λex=305 nm, Ex/Em=10 nm/12 nm, 50 mM HEPES buffer, 1 cm cell, 25° C.).

[4] = system: peptides with two phosphate groups positioned with a distance of (i, i+2); experiment: Fluorescence titration of compound 1 with (i, i+2) diphosphorylated tau peptides
Method: as §3

[5] = target: T4, peptides with two phosphate groups with a distance of (i, i+4) or (i, i+6) (Homo sapiens, UniProt P10636); experiment: Fluorescence titration of compound 1 with (i, i+4) or (i, i+6) diphosphorylated tau peptides
T4 construct: made in house; host or cells: chemical solid-phase synthesis
Method: as §3

[6] = Fluorescence titration of compound 1 with phenyl phosphate
Method: as §3

Tau204-2163P [7] = target: T5, Tau204-2163P (Homo sapiens, UniProt P10636); experiment: Fluorescence titration of compound 1 with Tau204-2163P
T5 construct: made in house; host or cells: chemical solid-phase synthesis
Method: as §3

Tau204-2162P (i, i+4) = target: T6, Tau204-2162P (i, i+4) (Homo sapiens, UniProt P10636); experiment: Fluorescence titration of compound 1 with Tau204-2162P (i, i+4)
T6 construct: made in house; host or cells: chemical solid-phase synthesis
Method: as §3

Tau204-2162P(i, i+6) [8] = target: T7, Tau204-2162P(i, i+6) (Homo sapiens, UniProt P10636); experiment: Fluorescence titration of compound 1 with Tau204-2162P (i, i+6)
T7 construct: made in house; host or cells: chemical solid-phase synthesis
Method: as §3

Tau210-2202P [9] = target: T3, Tau210-2202P; experiment: ITC measurement of affinity, Tau210-2202P; settings: compound 1 100 μM, peptide 2 mM, 25° C., pH 7.2, 50 mM HEPES
Method: (§4) To determine whether these fluorescence changes are associated with binding, affinity was examined by ITC measurement using, in particular, three peptides of Tau210-2202P, Tau204-2163P and Tau204-2162P(i, i+6). ITC measurement was performed under the following conditions: Tau210-2202P, [compound 1]=100 μM and [peptide]=2 mM; Tau204-2163P, [compound 1]=50 μM and [peptide]=1 mM; Tau204-2162P(i, i+6), [compound 1]=100 μM and [peptide]=3.24 mM; the number of titrations, 24; measurement temperature, 25° C.; pH 7.2; and 50 mM HEPES buffer. FIG. 11 illustrates caloric changes when Tau210-2202P was added to compound 1. FIG. 12 illustrates various thermodynamic parameters obtained from the caloric changes in the three different peptides. The caloric changes associated with the dropping of the peptide was an entropy-driven endothermic process (ΔS>0, ΔH>0). This change can be attributed to dehydration of water molecules hydrated to the compound molecules and the phosphorylated peptides along with the binding. The association constants obtained in Tau210-2202P and Tau204-2163P (K=3.33×10^5 M^−1 and K=2.88×10^5 M^−1, respectively) were similar to the values calculated from the fluorescence changes. […] On the other hand, N=0.51 was obtained in Tau204-2162P(i, i+6), and it appears that two compound molecules individually interact with two phosphate groups on the peptide.

Tau204-2163P [10] = target: T5, Tau204-2163P; experiment: ITC measurement of affinity, Tau204-2163P; settings: compound 1 50 μM, peptide 1 mM, 25° C., pH 7.2, 50 mM HEPES
Method: as §4

Tau204-2162P(i, i+6) [11] = target: T7, Tau204-2162P(i, i+6); experiment: ITC measurement of affinity, Tau204-2162P(i, i+6); settings: compound 1 100 μM, peptide 3.24 mM, 25° C., pH 7.2
Method: as §4

T1 sequence (P10636 1-441 isoform P10636-8): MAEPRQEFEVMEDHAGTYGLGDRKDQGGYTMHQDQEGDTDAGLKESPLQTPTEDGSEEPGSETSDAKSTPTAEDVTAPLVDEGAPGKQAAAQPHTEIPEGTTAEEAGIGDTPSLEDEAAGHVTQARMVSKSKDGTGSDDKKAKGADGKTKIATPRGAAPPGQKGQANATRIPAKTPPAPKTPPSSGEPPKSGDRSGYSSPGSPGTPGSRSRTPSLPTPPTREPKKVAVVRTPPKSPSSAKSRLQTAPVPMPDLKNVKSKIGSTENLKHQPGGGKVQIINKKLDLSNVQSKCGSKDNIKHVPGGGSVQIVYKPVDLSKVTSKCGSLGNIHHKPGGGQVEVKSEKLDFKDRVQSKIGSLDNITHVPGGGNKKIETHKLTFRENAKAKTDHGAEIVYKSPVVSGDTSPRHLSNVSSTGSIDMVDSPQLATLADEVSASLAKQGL
T2 sequence (P10636 1-441 isoform P10636-8): as above

SMILES | staining of aggregate ([1]; p-Tau in the presence of pyrophosphoric acid (PPi)) | staining of aggregate ([1]; p-Tau, 10 μM dye) | staining of aggregate [2] | association constants calculated from the fluorescence changes (Tau210-2202P [3]) | fluorescence change on dropwise addition of Tau210-2202P (Tau210-2202P [3]) | binding constants to the peptides calculated from the fluorescence changes ([4]; (i, i+2) peptides) | fluorescence change on dropwise addition of peptide ([4]; (i, i+2) peptides, compound 1 10 μM) | Ka ([4]; (i, i+2) phosphate groups on tau sequence, summary) | fluorescence change on dropwise addition of peptide ([5]; (i, i+4) or (i, i+6) peptides) | binding to two phosphate groups ([5]; positions (i, i+4) or (i, i+6), summary) | fluorescence change [6] | fluorescence change (Tau204-2163P [7]) | fluorescence change (Tau204-2162P (i, i+4)) | fluorescence change (Tau204-2162P(i, i+6) [8]) | association constant K (ITC) (Tau210-2202P [9]) [M⁻¹] | association constant K (ITC) (Tau204-2163P [10]) [M⁻¹] | stoichiometry N (ITC) (Tau204-2162P(i, i+6) [11])
Cc1ccc2c(c1)sc(-c1ccc(N(C)C)cc1)[n+]2C.[Cl-] [thioflavine T, reference compound] | stained the aggregate | fluorescence of ThT and that of BODIPY-Zn(Dpa) overlapped | is observed |  |  |  |  |  |  |  |  |  |  |  |  |  | 
CN(Cc1ccccn1)Cc1cc(/C=C/c2ccnc(CN(C)Cc3ccccn3)c2)ccn1.O=[N+]([O-])[O-].O=[N+]([O-])[O-].O=[N+]([O-])[O-].O=[N+]([O-])[O-].[Zn+2].[Zn+2] [compound 1] |  |  |  | approx. 10^5 M^−1 | dual wavelength fluorescence changes | approx. 10^5 | dual wavelength fluorescence changes | ~10^5 M^−1 | did not show marked fluorescence changes | did not bind | no marked fluorescence change | dual wavelength fluorescence changes occurred | no marked fluorescence change occurred | no marked fluorescence change occurred | 333000 | 288000 | 0.51
